Like-named read-outs stand apart in the source and are kept apart here. Values belong to the molecule of their own block, whether it stands above or below them.
Columns and labels:
Type in all cases: cell-based
Corynebacterium xerosis = assay: MIC in the agar incorporation test
Description: (§1) Determination of Minimum Inhibitory Concentration (MIC Values) in the Agar Incorporation Test
(§2) 1% stock solutions of the substances are prepared in an appropriate solvent and diluted in serial dilutions 1:2 (to yield end concentrations in the agar of 500-1.9 ppm). 0.3 ml of each dilution step is mixed with 15 ml of nutrient medium while the latter is still liquid. After the nutrient medium has solidified, 10 μl of each test strain in 0.85% NaCl solution are spotted onto the agar medium.
(§3) The plates are incubated at 37° C. for 24 hours and then the highest dilution (lowest concentration) of the test substance at which growth is no longer observable is determined.
(§4) Test Organisms: Staphylococcus aureus ATCC 6583 Staphylococcus epidermidis ATCC 12228 Corynebacterium xerosis ATCC 373 Propionibacterium acnes ATCC Escherichia coli ATCC 10536 Salmonella choleraesuis ATCC Klebsiella pneumoniae ATCC *Candida albicans ATCC 10231
(§5) *Aspergillus niger ATCC 6275

Propionibacterium acnes = assay: MIC in the agar incorporation test; details: Cutibacterium acnes, read-out: MIC Propionibacterium acnes
Description: as §1, §2, §3, §4, §5

Staphylococcus epidermis = assay: MIC in the agar incorporation test
Description: as §1, §2, §3, §4, §5

[1] = system: Corynebacterium minutissimum; assay: MIC in the agar incorporation test; details: read-out: MIC Corynebacterium minutissimum
Escherichia coli = assay: MIC in the agar incorporation test; details: ATCC10536, 24 h, read-out: MIC Escherichia coli
Description: as §1, §2, §3, §4, §5

Staphylococcus aureus = assay: MIC in the agar incorporation test
Description: as §1, §2, §3, §4, §5

Actinomyces viscosus = assay: MIC against oral microorganisms via broth dilution
Description: (§6) Determination of the Minimum Inhibition Concentration (MIC Value) Against Different Oral Microorganisms Via Broth Dilution
(§7) 1500 ppm stock solutions of the substances are prepared in ethanol and pipetted into the growth medium to yield concentrations between 0.94 and 15 ppm. Bacteria are taken from blood agar plates with cotton swabs and adjusted in the appropriate growth medium to yield an optical density corresponding to McFarland 0.5. This suspension is directly used in the case of F. nucleatum and P. nigrescens. For the other strains, the suspension is diluted 1:20. 0.1 ml of these bacterial suspensions are added to 2 ml of the substance solutions. After the incubation time, the tubes are assessed for growth (turbidity).
(§8) Test Organisms: *Actinobacillus actinomycetemcomitans ATCC 43718 *Stretococcus gordonii ATCC 10558 *Streptococcus mutans ATCC 33402 Actinomyces viscosus ATCC 43146 Fusobacterium nucleatum subsp. polymorphum ATCC 10953 Porphyromonas gingivalis ATCC 33277
(§9) Prevotella nigrescens ATCC 33563

Porphyromnas gingivalis = assay: MIC against oral microorganisms via broth dilution; details: read-out: MIC Porphyromnas gingivalis
Description: as §6, §7, §8, §9

Prevotella nigrescens = assay: MIC against oral microorganisms via broth dilution
Description: as §6, §7, §8, §9

Streptococcus gordonii = assay: MIC against oral microorganisms via broth dilution
Description: as §6, §7, §8, §9

Streptococcus mutans = assay: MIC against oral microorganisms via broth dilution
Description: as §6, §7, §8, §9

Klebsiella pneumoniae = assay: MIC in the agar incorporation test; details: Mueller Hinton agar, 24 hours at 37° C.
Description: as §1, §2, §3, §4, §5

Salmonella choleraesuis = assay: MIC in the agar incorporation test; details: Salmonella enterica, Mueller Hinton agar, 24 hours at 37° C.
Description: as §1, §2, §3, §4, §5

[2] = system: Actinobacillus actinomycetemcomitans; assay: MIC against oral microorganisms via broth dilution; details: Aggregatibacter actinomycetemcomitans, ATCC43718; broth dilution 0.94-15 ppm, 24 h aerobically with 10% CO2, ATCC 43718
Description: as §6, §7, §8, §9

[3] = system: Fusobacterium nucleatum subsp. polymorphum; assay: MIC against oral microorganisms via broth dilution; details: ATCC10953, broth dilution 0.94-15 ppm, 7-10 days at 37° C. anaerobically, ATCC 10953, read-out: MIC Fusobacterium nucleatum subsp. polymorphum
Description: as §6, §7, §8, §9

[4] = ATCC373, 24 h, read-out: MIC Corynebacterium xerosis
[5] = ATCC12228, 24 h, read-out: MIC Staphylococcus epidermis
[6] = agar incorporation, Mueller Hinton agar, 24 hours at 37° C.

Compound: C[n+]1ccccc1COc1ccccc1/C=C/c1ccc(-c2ccc(/C=C/c3ccccc3OCc3cccc[n+]3C)cc2)cc1 [formula 32]
MIC (Corynebacterium xerosis; [4]): 100 µg/mL
MIC (Propionibacterium acnes; 24 h): 100 µg/mL
MIC (Staphylococcus epidermis; [5]): 50 µg/mL
MIC ([1]; 24 h): 200 µg/mL

Compound: C[n+]1ccc(Oc2ccccc2/C=C/c2ccc(-c3ccc(/C=C/c4ccccc4Oc4cc[n+](C)cc4)cc3)cc2)cc1 [formula 34]
MIC (Corynebacterium xerosis; [4]): 3.1 µg/mL
MIC (Escherichia coli): 50 µg/mL
MIC (Propionibacterium acnes; 24 h): 1.6 µg/mL
MIC (Staphylococcus aureus; ATCC6583, 24 h, read-out: MIC Staphylococcus aureus): 3.1 µg/mL
MIC (Staphylococcus epidermis; [5]): 3.1 µg/mL
MIC ([1]; 24 h): 3.1 µg/mL
MIC (Actinomyces viscosus; ATCC43146, read-out: MIC Actinomyces viscosus): 1.9 µg/mL
MIC (Porphyromnas gingivalis): 7.5 µg/mL
MIC (Prevotella nigrescens; ATCC33563, read-out: MIC Prevotella nigrescens): 3.8 µg/mL
MIC (Streptococcus gordonii; ATCC10558, 24 h, read-out: MIC Streptococcus gordonii): 15 µg/mL
MIC (Streptococcus mutans; ATCC33402, 24 h, read-out: MIC Streptococcus mutans): 1.9 µg/mL

MIC (Corynebacterium xerosis; ATCC373, agar incorporation, Mueller Hinton agar, 24 hours at 37° C., ATCC 373, read-out: MIC Corynebacterium xerosis): 3.1 µg/mL
MIC (Klebsiella pneumoniae): 25 µg/mL
MIC (Propionibacterium acnes; [6]): 6.3 µg/mL
MIC (Staphylococcus aureus; ATCC6583, agar incorporation, Mueller Hinton agar, 24 hours at 37° C., ATCC 6583, read-out: MIC Staphylococcus aureus): 12.5 µg/mL
MIC (Staphylococcus epidermis; ATCC12228, agar incorporation, Mueller Hinton agar, 24 hours at 37° C., ATCC 12228, read-out: MIC Staphylococcus epidermis): 12.5 µg/mL
MIC [1, 6]: 3.1 µg/mL
MIC [2]: 15 µg/mL
MIC (Actinomyces viscosus; ATCC43146, broth dilution 0.94-15 ppm, 7-10 days at 37° C. anaerobically, ATCC 43146, read-out: MIC Actinomyces viscosus): 3.8 µg/mL
MIC [3]: 3.8 µg/mL
MIC (Porphyromnas gingivalis; broth dilution 0.94-15 ppm, Columbia bouillon, 7-10 days at 37° C. anaerobically, ATCC 33277): 3.8 µg/mL
MIC (Prevotella nigrescens; ATCC33563, broth dilution 0.94-15 ppm, Columbia bouillon, 7-10 days at 37° C. anaerobically, ATCC 33563, read-out: MIC Prevotella nigrescens): 3.8 µg/mL
MIC (Streptococcus gordonii; ATCC10558, broth dilution 0.94-15 ppm, 24 h aerobically with 10% CO2, ATCC 10558, read-out: MIC Streptococcus gordonii): 15 µg/mL
MIC (Streptococcus mutans; ATCC33402, broth dilution 0.94-15 ppm, 24 h aerobically with 10% CO2, ATCC 33402, read-out: MIC Streptococcus mutans): 7.5 µg/mL
Compound: Cc1ccc(/C=C/c2ccc(/C=C/c3ccc(C)c(OCCCN(C)C)c3)cc2)cc1OCCCN(C)C [formula 30]
MIC (Salmonella choleraesuis): 200 µg/mL
